System: mice bone marrow polychromatophils
Conditions: positive control
[1] = 20 mg/kg intraperitoneally in male mice

From the text: The Study purpose is to reveal and quantitatively assess the cytogenetic activity (mutagenicity) of the pharmacologic drugs in the mammalian bone marrow polychromatophils. The method's base is the micronuclei cells microscopic registration.
The experimental used the male and female F1(CBAx C57BI6/J) hybrid mice, two-month age, 18 to 20 grams body weight. Every group included 6 animals. The animals were kept under the 12-hour light regime, with freely available water and food. The single and five fold administration protein-polypeptide complex mutagenicity assessment animal experiments were in compliance with the official protocols. Three experimental series with relevant controls were performed: therapeutic dosage: males, single administration; subtoxic dose: males, single administration; and therapeutic dosage: males and females, five fold administration.
The protein-polypeptide complex mutagenicity assessment dose was defined on the basis of the maximum recommended daily therapeutic dose (TD) for human. The 2 ml at 0.1 mg/ml concentration IV administration is recommended. The therapeutic dose for human, including infant, may be 0.05 mg/kg/day. To calculate the mice experimental dose, the conversion factor is recommended to take into account the human and murine body surface area to body mass ratio. In our study it was 8.33.
For the subtoxic dose the maximum possible experimental one was used, 10 mg/kg, as the substance concentration was 0.1 mg/ml; the conventional total substance administered to mice is 0.1 ml per 10 g body weight.
Seven groups of animals, four experimental and three control ones, were formed. […]
The bone marrow cells preparation for the micronuclei account were made in conventional manner, in accordance with the "Micronuclear Test Environmental Factors Mutagenicity Assessment in Mammalia Organs Cells" Guidelines. […] 2000 polychromatophils per animal were then analyzed with coded preparations. At the 500 erythrocytes count the polychromatophil to normochromatic erythrocytes ratio was determined. […]

For `O=P1(N(CCCl)CCCl)NCCCO1` (stereo not drawn) [cyclophosphamide], the “higher micronuclei cells vs. control” value [1] was 19.6 fold, the micronuclei cells [1] was 62.1 ‰ and the “polychromatophil to normochromatic erythrocytes ratio” value (20 mg/kg intraperitoneally, P < 0.005 vs control) was “shift to the latter ones”.

— patent EP2589390B1, “PHARMACEUTICAL COMPOSITION FOR TREATING CENTRAL AND PERIPHERAL NERVOUS SYSTEM DISEASES OF VASCULAR, TRAUMATIC, TOXIC, HYPOXIC AND […]” (Aktsionernoe Obschestvo "Pharm-Sintez", priority 2010, dated 2012)
